Results: ChEMBL document CHEMBL1146531, “Steroidal saponins from the bark of Dracaena draco and their cytotoxic activities” (J Nat Prod, 2003)
Activity calls are given as the source filed them. No cut-off for these calls is given here.

How the values were obtained:
[1] = tested on: HL-60; experiment: Cytotoxicity against human HL60 cells after 72 hrs by MTT assay; assay type: functional, cell-based; settings: HL-60, 72 h
[2] = tested on: HL-60; experiment: Induction of apoptosis in human HL60 cells assessed as apoptotic cells at 30 uM after 12 hrs measured by morphological change; assay type: functional
[3] = tested on: HL-60; experiment: Cytotoxicity against human HL60 cells after 48 hrs by MTT assay; assay type: functional, cell-based
[4] = tested on: HL-60; experiment: Induction of apoptosis in human HL60 cells assessed as PARP cleavage at 30 uM after 12 hrs by Western blot analysis; assay type: functional, cell-based
[5] = tested on: U-937; experiment: Cytotoxicity against human U937 cells; assay type: functional, cell-based

## C=C1CO[C@@]2(O[C@H]3C[C@H]4[C@@H]5CC=C6C[C@@H](O)C[C@@H](O[C@@H]7OC[C@H](O)[C@H](O)[C@H]7O[C@@H]7O[C@@H](C)[C@H](O)[C@@H](O)[C@H]7OC(C)=O)[C@]6(C)[C@H]5CC[C@]4(C)[C@H]3[C@@H]2C)[C@@H](O)[C@H]1O [DRACONIN C]
[1]
  IC50: > 100 µM
[2]
  Activity: 5%

## CO[C@]1(CC[C@@H](C)CO[C@@H]2O[C@H](CO)[C@@H](O)[C@H](O)[C@H]2O)O[C@H]2C[C@H]3[C@@H]4CC=C5C[C@@H](O[C@@H]6O[C@H](CO)[C@@H](O[C@@H]7O[C@@H](C)[C@H](O)[C@@H](O)[C@H]7O)[C@H](O)[C@H]6O[C@@H]6O[C@@H](C)[C@H](O)[C@@H](O)[C@H]6O)CC[C@]5(C)[C@H]4CC[C@]3(C)[C@H]2[C@@H]1C [METHYLPROTODIOSCIN]
[1]
  IC50: 7.3 µM
[3]
  Activity: Active

## CO[C@]1(CC[C@@H](C)CO[C@@H]2O[C@H](CO)[C@@H](O)[C@H](O)[C@H]2O)O[C@H]2C[C@H]3[C@@H]4CC=C5C[C@@H](O[C@@H]6O[C@H](CO)[C@@H](O)[C@H](O[C@@H]7O[C@H](CO)[C@@H](O)[C@H](O)[C@H]7O)[C@H]6O[C@@H]6O[C@@H](C)[C@H](O)[C@@H](O)[C@H]6O)CC[C@]5(C)[C@H]4CC[C@]3(C)[C@H]2[C@@H]1C
[1]
  IC50: 7.2 µM

## C=C1CO[C@@]2(O[C@H]3C[C@H]4[C@@H]5CC=C6C[C@@H](O)C[C@@H](O[C@@H]7OC[C@H](O)[C@H](O)[C@H]7O[C@@H]7O[C@@H](C)[C@H](OC(C)=O)[C@@H](O)[C@H]7O)[C@]6(C)[C@H]5CC[C@]4(C)[C@H]3[C@@H]2C)[C@@H](O)[C@H]1O
[1]
  IC50: > 100 µM

## C=C1CO[C@@]2(O[C@H]3C[C@H]4[C@@H]5CC=C6C[C@@H](O)C[C@@H](O[C@@H]7OC[C@H](O)[C@H](O)[C@H]7O[C@@H]7O[C@@H](C)[C@H](O)[C@@H](OC(C)=O)[C@H]7OC(C)=O)[C@]6(C)[C@H]5CC[C@]4(C)[C@H]3[C@@H]2C)[C@@H](O)[C@H]1O [DRACONIN B]
[1]
  IC50: 39 µM
[2]
  Activity: 9.4%

## C[C@@H]1CC[C@@]2(OC1)O[C@H]1C[C@H]3[C@@H]4CC=C5C[C@@H](O[C@@H]6O[C@H](CO)[C@@H](O)[C@H](O[C@@H]7O[C@H](CO)[C@@H](O)[C@H](O)[C@H]7O)[C@H]6O[C@@H]6O[C@@H](C)[C@H](O)[C@@H](O)[C@H]6O)CC[C@]5(C)[C@H]4CC[C@]3(C)[C@H]1[C@@H]2C [GRACILLIN]
[1]
  IC50: 3.7 µM

## C[C@@H]1CC[C@@]2(OC1)O[C@H]1C[C@H]3[C@@H]4CC=C5C[C@@H](O[C@@H]6O[C@H](CO)[C@@H](O[C@@H]7O[C@@H](C)[C@H](O)[C@@H](O)[C@H]7O)[C@H](O)[C@H]6O)CC[C@]5(C)[C@H]4CC[C@]3(C)[C@H]1[C@@H]2C
[1]
  IC50: > 100 µM

## C=C1CO[C@@]2(O[C@H]3C[C@H]4[C@@H]5CC=C6C[C@@H](O)C[C@@H](O[C@@H]7OC[C@H](O)[C@H](O)[C@H]7O[C@@H]7O[C@@H](C)[C@H](OC(C)=O)[C@@H](OC(C)=O)[C@H]7OC(C)=O)[C@]6(C)[C@H]5CC[C@]4(C)[C@H]3[C@@H]2C)[C@@H](O)[C@H]1O [DRACONIN A]
[1]
  IC50: 9.7 µM
[2]
  Activity: 35.1%
[4]
  Activity: Dose-dependent effect
[5]
  IC50: 6.8 µM

## C[C@@H]1CC[C@@]2(OC1)O[C@H]1C[C@H]3[C@@H]4CC=C5C[C@@H](O[C@@H]6O[C@H](CO)[C@@H](O[C@@H]7O[C@@H](C)[C@H](O)[C@@H](O)[C@H]7O)[C@H](O)[C@H]6O[C@@H]6O[C@@H](C)[C@H](O)[C@@H](O)[C@H]6O)CC[C@]5(C)[C@H]4CC[C@]3(C)[C@H]1[C@@H]2C [DIOSCIN]
[1]
  IC50: 2 µM
